A word on the IC50: it is the point on the concentration scale where inhibition reaches its midpoint.

Structures can show the parent of a compound that is named as a salt. Where two headings read alike, the source gives them in different places.

Assay [1] has as its system influenza A virus (A/PR/8/34). Description: microbe, parasite or virus in culture. The class given is cell-based.
For assay [2], the system named is A/PR/8/34 influenza virus. Description: microbe, parasite or virus in culture. The assay is classed as cell-based.
Setting [3] is: Influenza A virus, PR/8, MDCK, MDCK cells infected with A/PR/8/34, survival of infected cells, class symbols, read-out: IC50 (mean all).
Where [4] appears, read: Influenza A virus, PR/8, MDCK, MDCK cells infected with A/PR/8/34, replication of influenza virus (viral RNA, bDNA), class symbols, read-out: EC50 (mean all).
Setting [5] is: Influenza A virus, PR/8, MDCK, mean all, A/PR/8/34 infected MDCK cells, CPE assay, read-out: IC50.
Where [6] appears, read: Influenza A virus, PR/8, MDCK, mean all, A/PR/8/34 influenza virus in MDCK cells, bDNA assay, read-out: EC50.
The mark [7] stands for this setting: Influenza A virus, PR/8, MDCK, MDCK cells infected with A/PR/8/34, cell protection (CPE), read-out: IC50 (mean all).
[8] abbreviates: Influenza A virus, PR/8, MDCK, MDCK cells infected with A/PR/8/34, bDNA viral RNA, read-out: EC50 (mean all).
Where [9] appears, read: Influenza A virus, PR/8, MDCK, CPE assay, A/PR/8/34 infected MDCK cells, class symbols, read-out: IC50 (mean all).
Where [10] appears, read: Influenza A virus, PR/8, MDCK, bDNA assay, A/PR/8/34 influenza virus replication in MDCK cells, class symbols, read-out: EC50 (mean all).
[11] abbreviates: mean all, MDCK cells infected with A/PR/8/34, cell protection (CPE), read-out: IC50.
The mark [12] stands for this setting: mean all, bDNA viral RNA in MDCK cells infected with A/PR/8/34, read-out: EC50.

`N=C(N)N[C@@H]1CCC[C@H](Nc2nc(-c3c[nH]c4ncc(F)cc34)ncc2F)C1` [Compound 1143, 1-((1R,3S)-3-(5-fluoro-2-(5-fluoro-1H-pyrrolo[2,3-b]pyridin-3-yl)pyrimidin-4-ylamino)cyclohexyl)guanidine]: the IC50 in assay [1] (Influenza A virus, PR/8, MDCK, MDCK cells, A/PR/8/34, ATP readout, mean all, read-out: Cell Flu, MDCK protection, ATP (All: IC50: uM)(Mean (All))) was below 5 µM. The EC50 in assay [2] (Influenza A virus, PR/8, 30 h, HA(−) 30 hr, A/PR/8, bDNA, mean all, read-out: Cell Influenza HA(−) 30 hr A/PR/8 bDNA:bDNA EC50 uM(Mean (All))) is below 5 µM.
Consider `CN(C)C(=O)N[C@@H]1CCCC[C@H]1CNc1nc(-c2c[nH]c3ncc(Cl)cc23)ncc1F` (relative stereo) [Compound 564, 3-(trans-2-((2-(5-chloro-1H-pyrrolo[2,3-b]pyridin-3-yl)-5-fluoropyrimidin-4-ylamino)methyl)cyclohexyl)-1,1-dimethylurea], for which the IC50 in assay [1] (setting [3]) is above 10 µM. Besides, the EC50 in assay [2] (setting [4]) is below 5 µM.
Turning to `O=C(C1CCC1)N1CCC[C@H](Nc2nc(-c3c[nH]c4ncc(Cl)cc34)ncc2F)C1` [Compound 395], the half-inhibitory concentration (IC50) in assay [1] (setting [5]) was below 5 µM. The EC50 in assay [2] (setting [6]) was below 5 µM.
Turning to `CCCCS(=O)(=O)N1CCC[C@H](Nc2nc(-c3c[nH]c4ncc(Cl)cc34)ncc2F)C1` [Compound 390, (S)—N-(1-(butylsulfonyl)piperidin-3-yl)-2-(5-chloro-1H-pyrrolo[2,3-b]pyridin-3-yl)-5-fluoropyrimidin-4-amine], in assay [1] (setting [5]), the IC50 is below 5 µM. In addition, in assay [2] (setting [6]), the EC50 was below 5 µM.
With `O=S(=O)(C1CC1)N1CCC[C@H](Nc2nc(-c3c[nH]c4ncc(Cl)cc34)ncc2F)C1` [Compound 391, (S)-2-(5-chloro-1H-pyrrolo[2,3-b]pyridin-3-yl)-N-(1-(cyclopropylsulfonyl)piperidin-3-yl)-5-fluoropyrimidin-4-amine], the IC50 in assay [1] (setting [5]) is below 5 µM. The EC50 in assay [2] (setting [6]) is below 5 µM.
Regarding `NC1CCCC(Nc2nc(-c3c[nH]c4ncc(Cl)cc34)ncc2F)C1` (stereo not drawn) [Compound 540, N-[2-(5-chloro-1H-pyrrolo[5,4-b]pyridin-3-yl)-5-fluoro-pyrimidin-4-yl]cyclohexane-cis-1,3-diamine], the IC50 in assay [1] (setting [3]) is below 5 µM. For the same molecule, the EC50 in assay [2] (setting [4]) was below 5 µM.
On to `C#CCCCC(=O)N1CCCC[C@@H]1CNc1nc(-c2c[nH]c3ncc(Cl)cc23)ncc1F` [Compound 281, (R)-1-(2-((2-(5-chloro-1H-pyrrolo[2,3-b]pyridin-3-yl)-5-fluoropyrimidin-4-ylamino)methyl)piperidin-1-yl)hex-5-yn-1-one], for which the IC50 in assay [1] (setting [7]) is below 5 µM. Besides, the EC50 in assay [2] (setting [8]) is below 5 µM.
In the case of `CC(C)(C(N)=O)N1CCC[C@H](Nc2nc(-c3c[nH]c4ncc(Cl)cc34)ncc2F)C1` [Compound 598], the concentration for half-maximal inhibition (IC50) in assay [1] (setting [9]) is below 5 µM. In addition, in assay [2] (setting [10]), the EC50 is below 5 µM.
For `CCC(CC)O[C@@H]1CC(C(=O)O)=CC(Nc2nc(-c3c[nH]c4ncc(Cl)cc34)ncc2F)[C@H]1NC(C)=O` (stereo partly drawn) [Compound 671], the IC50 in assay [1] (setting [9]) was above 10 µM. Also, the EC50 in assay [2] (setting [10]) was above 3.3 µM.
Consider `COP(=O)(CN1CCC[C@H](Nc2nc(-c3c[nH]c4ncc(Cl)cc34)ncc2F)C1)OC` [Compound 690], for which the 50% inhibitory concentration (IC50) in assay [1] (Influenza A virus, PR/8, MDCK, read-out: IC50) is below 5 µM. This molecule also returned an EC50 in assay [2] (Influenza A virus, PR/8, MDCK) below 5 µM.
For `O=C(N[C@@H]1CCC[C@H](Nc2nc(-c3c[nH]c4ncc(Cl)cc34)ncc2F)C1)C1CCCOC1` (stereo partly drawn) [Compound 633, N-[(1R,3S)-3-[[2-(5-chloro-1H-pyrrolo[2,3-b]pyridin-3-yl)-5-fluoro-pyrimidin-4-yl]amino]cyclohexyl]tetrahydropyran-3-carboxamide hydrochloride], in assay [1] (setting [9]), the IC50 was below 5 µM. Further, in assay [2] (setting [10]), the EC50 was below 5 µM.
Take `C[C@]1(C(=O)O)CCCC[C@@H]1Nc1nc(-c2c[nH]c3ncc(Cl)cc23)ncc1F` (stereo in doubt) [Compound 643, Trans-2-[[2-(5-chloro-1H-pyrrolo[2,3-b]pyridin-3-yl)-5-fluoro-pyrimidin-4-yl]amino]-1-methyl-cyclohexanecarboxylic acid]: the IC50 in assay [1] (setting [9]) was below 5 µM. Also, the EC50 in assay [2] (setting [10]) was below 5 µM.
Regarding `CC(O)C(=O)N[C@@H]1CCC[C@H](Nc2nc(-c3c[nH]c4ncc(Cl)cc34)ncc2F)C1` (stereo partly drawn) [Compound 642, N-[(1R,3S)-3-[[2-(5-chloro-1H-pyrrolo[2,3-b]pyridin-3-yl)-5-fluoro-pyrimidin-4-yl]amino]cyclohexyl]-2-hydroxy-propanamide hydrochloride], in assay [1] (setting [9]), the IC50 was below 5 µM. Moreover, the EC50 in assay [2] (setting [10]) is below 5 µM.
With `COc1ccc(C(=O)N2CCC[C@H](CNc3nc(-c4c[nH]c5ncc(Cl)cc45)ncc3F)C2)cc1OC` [Compound 109, (R)-(3-((2-(5-chloro-1H-pyrrolo[2,3-b]pyridin-3-yl)-5-fluoropyrimidin-4-ylamino)methyl)piperidin-1-yl)(3,4-dimethoxyphenyl)methanone], the 50% inhibitory concentration (IC50) in assay [1] (setting [7]) was below 5 µM. For the same molecule, in assay [2] (setting [8]), the EC50 was below 5 µM.
In the case of `Fc1cnc(-c2c[nH]c3ncc(Cl)cc23)nc1NC[C@H]1CCCN(c2ncccn2)C1` [Compound 124, (R)-2-(5-chloro-1H-pyrrolo[2,3-b]pyridin-3-yl)-5-fluoro-N-((1-(pyrimidin-2-yl)piperidin-3-yl)methyl)pyrimidin-4-amine], in assay [1] (setting [7]), the concentration for half-maximal inhibition (IC50) was below 5 µM. Moreover, the EC50 in assay [2] (setting [8]) was below 5 µM.
Take `O=C(NCC1CC1)C1CCCC(Nc2nc(-c3c[nH]c4ncc(Cl)cc34)ncc2F)C1` (stereo not drawn) [Compound 719]: the half-maximal inhibitory concentration (IC50) in assay [1] (setting [11]) is below 5 µM. Also, the EC50 in assay [2] (setting [12]) was below 5 µM.
For `CC=CC(=O)N1CCC[C@@H](CNc2nc(-c3c[nH]c4ncc(Cl)cc34)ncc2F)C1` [Compound 41, (S)-1-(3-((2-(5-chloro-1H-pyrrolo[2,3-b]pyridin-3-yl)-5-fluoropyrimidin-4-ylamino)methyl)piperidin-1-yl)but-2-en-1-one], in assay [1] (Influenza A virus, PR/8, MDCK, read-out: IC50 (mean all)), the concentration for half-maximal inhibition (IC50) was below 5 µM. Also, the EC50 in assay [2] (Influenza A virus, PR/8, MDCK, read-out: EC50 (mean all)) is below 5 µM.
With `O=C(Cc1cccs1)N1CCC[C@H](CNc2nc(-c3c[nH]c4ncc(Cl)cc34)ncc2F)C1` [Compound 104, (R)-1-(3-((2-(5-chloro-1H-pyrrolo[2,3-b]pyridin-3-yl)-5-fluoropyrimidin-4-ylamino)methyl)piperidin-1-yl)-2-(thiophen-2-yl)ethanone], in assay [1] (setting [7]), the IC50 is below 5 µM. In assay [2] (setting [8]), the EC50 was below 5 µM.
Regarding `COc1ccccc1C(=O)N1CCC[C@H](CNc2nc(-c3c[nH]c4ncc(Cl)cc34)ncc2F)C1` [Compound 113, (R)-(3-((2-(5-chloro-1H-pyrrolo[2,3-b]pyridin-3-yl)-5-fluoropyrimidin-4-ylamino)methyl)piperidin-1-yl)(2-methoxyphenyl)methanone], the IC50 in assay [1] (setting [7]) was below 5 µM. Also, the EC50 in assay [2] (setting [8]) is below 5 µM.
Regarding `CC(C)(C)c1nc(-c2c[nH]c3ncc(Cl)cc23)nc(NC2CCCCC2(C)C(=O)O)c1F` (stereo not drawn) [Compound 691], the IC50 in assay [1] (setting [11]) is below 5 µM. Also, the EC50 in assay [2] (setting [12]) is below 5 µM.
For `CS(=O)(=O)N1CCC[C@H](Nc2nc(-c3c[nH]c4ncc(Cl)cc34)ncc2F)C1` [Compound 389, (S)-2-(5-chloro-1H-pyrrolo[2,3-b]pyridin-3-yl)-5-fluoro-N-(1-(methylsulfonyl)piperidin-3-yl)pyrimidin-4-amine], the concentration for half-maximal inhibition (IC50) in assay [1] (setting [5]) is below 5 µM. The EC50 in assay [2] (setting [6]) is below 5 µM.
On to `C=CCOC(=O)N1CCOCC1CNc1nc(-c2c[nH]c3ncc(Cl)cc23)ncc1F` (stereo not drawn) [Compound 528, Allyl 3-((2-(5-chloro-1H-pyrrolo[2,3-b]pyridin-3-yl)-5-fluoropyrimidin-4-ylamino)methyl)morpholine-4-carboxylate], for which the IC50 in assay [1] (setting [3]) lay in the range of 5 to 20 µM. Also, the EC50 in assay [2] (setting [4]) was above 10 µM.
Take `O=C(C1CCCO1)N1CCCC(Nc2nc(-c3c[nH]c4ncc(Cl)cc34)ncc2F)C1` (stereo not drawn) [Compound 660]: the half-maximal inhibitory concentration (IC50) in assay [1] (CPE assay, A/PR/8/34 infected MDCK cells, class symbols, read-out: IC50 (mean all)) was below 5 µM. In assay [2] (bDNA assay, A/PR/8/34 influenza virus replication in MDCK cells, class symbols, read-out: EC50 (mean all)), the EC50 is below 5 µM.
For `C=CCOC(=O)N1CCC[C@@H](CNc2nc(-c3c[nH]c4ncc(Cl)cc34)ncc2F)C1` [Compound 17, (S)-allyl 3-((2-(5-chloro-1H-pyrrolo[2,3-b]pyridin-3-yl)-5-fluoropyrimidin-4-ylamino)methyl)piperidine-1-carboxylate], the IC50 in assay [1] (setting [7]) lay within 5 to 20 µM. For the same molecule, the EC50 in assay [2] (setting [8]) is below 5 µM.
Consider `O=S(=O)(c1cccc(F)c1)N1CCC[C@H](CNc2nc(-c3c[nH]c4ncc(Cl)cc34)ncc2F)C1` [Compound 65, (R)-2-(5-chloro-1H-pyrrolo[2,3-b]pyridin-3-yl)-5-fluoro-N-((1-(3-fluorophenylsulfonyl)piperidin-3-yl)methyl)pyrimidin-4-amine], for which, in assay [1] (setting [7]), the concentration for half-maximal inhibition (IC50) is below 5 µM. Further, the EC50 in assay [2] (setting [8]) is below 5 µM.
In the case of `CC(C)C(=O)NC1CCCC(Nc2nc(-c3c[nH]c4ncc(Cl)cc34)ncc2F)C1` (stereo not drawn) [Compound 685], the half-inhibitory concentration (IC50) in assay [1] (setting [11]) was below 5 µM. In assay [2] (setting [12]), the EC50 is below 5 µM.
For `O=c1[nH]c(=O)n([C@H]2CCC[C@H](Nc3nc(-c4c[nH]c5ncc(Cl)cc45)ncc3F)C2)o1` [Compound 798], the half-inhibitory concentration (IC50) in assay [1] (read-out: IC50) was below 5 µM. For the same molecule, the EC50 in assay [2] (mean all, A/PR/8/34 influenza virus replication, bDNA, read-out: EC50) is below 5 µM.

The record behind these values is patent US8829007B2 (priority 2009, dated 2014).
